# Assay results published in patent US10988466B2, “Heterocyclic derivatives useful as SHP2 inhibitors” (Jacobio Pharmaceuticals Co., Ltd., priority 2017, dated 2021).
# Target: T1, SHP2 (Homo sapiens, UniProt Q06124)
# T1 sequence (Q06124 1-593): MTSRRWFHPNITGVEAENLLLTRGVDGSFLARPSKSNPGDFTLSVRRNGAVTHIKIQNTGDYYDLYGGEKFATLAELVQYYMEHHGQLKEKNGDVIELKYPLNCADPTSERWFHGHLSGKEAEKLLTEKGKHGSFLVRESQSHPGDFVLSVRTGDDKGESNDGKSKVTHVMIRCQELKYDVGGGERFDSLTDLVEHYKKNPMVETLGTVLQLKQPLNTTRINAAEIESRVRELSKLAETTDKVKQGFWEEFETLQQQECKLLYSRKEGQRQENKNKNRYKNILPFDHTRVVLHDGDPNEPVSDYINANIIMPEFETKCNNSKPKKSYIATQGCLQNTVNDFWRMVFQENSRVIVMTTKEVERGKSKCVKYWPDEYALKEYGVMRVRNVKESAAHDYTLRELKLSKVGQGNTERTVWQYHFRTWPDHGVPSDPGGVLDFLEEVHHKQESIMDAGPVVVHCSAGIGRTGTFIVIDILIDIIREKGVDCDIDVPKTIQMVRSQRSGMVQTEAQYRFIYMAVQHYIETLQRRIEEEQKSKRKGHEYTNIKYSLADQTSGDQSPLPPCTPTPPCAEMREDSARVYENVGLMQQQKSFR
# Assay: biochemical
# Settings: read-out: SHP2 inhibition (%)@0.1 μM
# 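Further: compounds preincubated 30 min at room temperature in the assay mixture, activity referenced to a 0.5% (v/v) DMSO control taken as 100%, run in triplicate.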
row,Structure (SMILES),inhibition at 0.1 µM
1,"Nc1nc(N2CCC3(CC2)Cc2ccc(C(=O)O)cc2[C@H]3N)cnc1Sc1ccnc(N)c1Cl [Example 80, (S)-1-amino-1′-(6-amino-5-((2-amino-3-chloropyridin-4-yl)thio)pyrazin-2-yl)-1,3-dihydrospiro [indene-2,4′-piperidine]-6-carboxylic acid]",75%
2,"CCOP(=O)(OCC)c1ccc2c(c1)[C@@H](N)C1(CCN(c3cnc(Sc4ccnc(N)c4Cl)c(N)n3)CC1)C2 [Example 90, diethyl (S)-(1-amino-1′-(6-amino-5-((2-amino-3-chloropyridin-4-yl)thio)pyrazin-2-yl)-1,3-dihydrospiro [indene-2,4′-piperidin]-6-yl) phosphonate]",71%
3,Nc1nc(N2CCC3(CC2)Oc2ncccc2[C@H]3N)cnc1Sc1ccnc(N)c1Cl [Example 96],66%
4,"Nc1cccc(Sc2cnc(N3CCC4(CC3)Cc3ncccc3[C@H]4N)cn2)c1Cl [Example 97, (S)-1′-(5-((3-amino-2-chlorophenyl)thio)pyrazin-2-yl)-5,7-dihydro-spiro[cyclopenta [b]pyridine-6,4′-piperidin]-5-amine]",86%
5,"Nc1cccc(Sc2ncc(N3CCC4(CC3)Cc3ncccc3[C@H]4N)nc2N)c1Cl [Example 98, (S)-1′-(6-amino-5-((3-amino-2-chlorophenyl)thio)pyrazin-2-yl)-5,7-dihydrospiro [cyclopenta[b]pyridine-6,4′-piperidin]-5-amine]",81%
6,"N[C@@H]1c2cccnc2CC12CCN(c1cnc(Sc3cc(F)ncc3Cl)cn1)CC2 [Example 101, (S)-1′-(5-((5-chloro-2-fluoro-pyridin-4-yl)thio)pyrazin-2-yl)-5,7-dihydrospiro[cyclopenta [b]pyridine-6,4′-piperidin]-5-amine]",83%
7,"Nc1nc(N2CCC3(CC2)Cc2ncccc2[C@H]3N)cnc1Sc1cc(F)ncc1Cl [Example 102, (S)-1′-(6-amino-5-((5-chloro-2-fluoropyridin-4-yl)thio)pyrazin-2-yl)-5,7-dihydro-spiro[cyclopenta[b]pyridine-6,4′-piperidin]-5-amine]",81%
8,"CC(=O)N1CC(F)(F)c2c(Sc3ncc(N4CCC5(CC4)Cc4ncccc4[C@H]5N)nc3N)cccc21 [Example 103, (S)-1-(4-((3-amino-5-(5-amino-5,7-dihydrospiro [cyclopenta[b]pyridine-6,4′-piperidin]-1′-yl)pyrazin-2-yl)thio)-3,3-difluoroindolin-1-yl) ethan-1-one]",76%
9,"N[C@@H]1c2cccnc2CC12CCN(c1cnc(Sc3cnccc3Cl)cn1)CC2 [Example 106, (S)-1′-(5-((4-chloropyridin-3-yl)thio)pyrazin-2-yl)-5,7-dihydrospiro [cyclopenta[b]pyridine-6,4′-piperidin]-5-amine]",82%
10,"Nc1nc(N2CCC3(CC2)Cc2ncccc2[C@H]3N)cnc1Sc1cnccc1Cl [Example 107, (S)-1′-(6-amino-5-((4-chloropyridin-3-yl)thio)pyrazin-2-yl)-5,7-dihydrospiro[cyclo-penta[b]pyridine-6,4′-piperidin]-5-amine]",77%
11,"Nc1cnccc1Sc1cnc(N2CCC3(CC2)Cc2ncccc2[C@H]3N)cn1 [Example 108, (S)-1′-(5-((3-amino-pyridin-4-yl)thio)pyrazin-2-yl)-5,7-dihydrospiro [cyclopenta[b]pyridine-6,4′-piperidin]-5-amine]",71%
12,"Nc1cnccc1Sc1ncc(N2CCC3(CC2)Cc2ncccc2[C@H]3N)nc1N [Example 109, (S)-1′-(6-amino-5-((3-aminopyridin-4-yl)thio)pyrazin-2-yl)-5,7-dihydrospiro[cyclo-penta[b]pyridine-6,4′-piperidin]-5-amine]",71%
13,"N[C@@H]1c2cccnc2CC12CCN(c1cnc(Sc3c(Cl)cncc3Cl)cn1)CC2 [Example 110, (S)-1′-(5-((3,5-dichloropyridin-4-yl)thio)pyrazin-2-yl)-5,7-dihydrospiro [cyclopenta[b]pyridine-6,4′-piperidin]-5-amine]",61%
14,"Nc1nc(N2CCC3(CC2)Cc2ncccc2[C@H]3N)cnc1Sc1c(Cl)cncc1Cl [Example 111, (S)-1′-(6-amino-5-((3,5-dichloro-pyridin-4-yl)thio)pyrazin-2-yl)-5,7-dihydrospiro [cyclopenta[b]pyridine-6,4′-piperidin]-5-amine]",82%
15,"Nc1cc(Sc2ncc(N3CCC4(CC3)Cc3ncccc3[C@H]4N)nc2N)c(Cl)cn1 [Example 113, (S)-1′-(6-amino-5-((2-amino-5-chloropyridin-4-yl)thio)pyrazin-2-yl)-5,7-dihydrospiro [cyclopenta[b]pyridine-6,4′-piperidin]-5-amine]",80%
16,"Nc1nc(N2CCC3(CC2)Cc2ncccc2[C@H]3N)cnc1Sc1cccnc1C(F)(F)F [Example 114, (S)-1′-(6-amino-5-((2-(trifluoro-methyl)pyridin-3-yl)thio)pyrazin-2-yl)-5,7-dihydrospiro [cyclopenta [b]pyridine-6,4′-piperidin]-5-amine]",96%
17,"N[C@@H]1c2cccnc2CC12CCN(c1cnc(Sc3ccnc(F)c3Cl)cn1)CC2 [Example 115, (S)-1′-(5-((3-chloro-2-fluoropyridin-4-yl)thio)pyrazin-2-yl)-5,7-dihydrospiro [cyclopenta[b]pyridine-6,4′-piperidin]-5-amine]",86%
18,"Nc1nc(N2CCC3(CC2)Cc2ncccc2[C@H]3N)cnc1Sc1ccnc(F)c1Cl [Example 116, (S)-1′-(6-amino-5-((3-chloro-2-fluoropyridin-4-yl)thio)pyrazin-2-yl)-5,7-dihydrospiro [cyclopenta[b]pyridine-6,4′-piperidin]-5-amine]",79%
19,"N#Cc1ncccc1Sc1cnc(N2CCC3(CC2)Cc2ncccc2[C@H]3N)cn1 [Example 117, (S)-3-((5-(5-amino-5,7-dihydrospiro [cyclopenta[b]pyridine-6,4′-piperidin]-1′-yl)pyrazin-2-yl)thio) picolinonitrile]",81%
20,"N#Cc1ncccc1Sc1ncc(N2CCC3(CC2)Cc2ncccc2[C@H]3N)nc1N [Example 118, (S)-3-((3-amino-5-(5-amino-5,7-dihydrospiro [cyclopenta[b]pyridine-6,4′-piperidin]-1′-yl)pyrazin-2-yl)thio)picolinonitrile]",81%
21,"N[C@@H]1c2cccnc2CC12CCN(c1cnc(Sc3cc(Cl)ncc3C(F)(F)F)cn1)CC2 [Example 119, (S)-1′-(5-((2-chloro-5-(trifluoro-methyl)pyridin-4-yl)thio)pyrazin-2-yl)-5,7-dihydro-spiro[cyclopenta [b]pyridine-6,4′-piperidin]-5-amine]",61%
22,"Nc1nc(N2CCC3(CC2)Cc2ncccc2[C@H]3N)cnc1Sc1cc(Cl)ncc1C(F)(F)F [Example 120, (S)-1′-(6-amino-5-((2-chloro-5-(trifluoromethyl)pyridin-4-yl)thio)pyrazin-2-yl)-5,7-dihydrospiro [cyclopenta[b]pyridine-6,4′-piperidin]-5-amine]",87%
23,"Nc1nc(N2CCC3(CC2)Cc2ccccc2C3N)cnc1Sc1ccnc(N)c1Cl (centres unmarked) [Example 124, 1′-(6-amino-5-((2-amino-3-chloropyridin-4-yl)thio)pyrazin-2-yl)-1,3-dihydrospiro [indene-2,4′-piperidin]-1-amine]",84%
24,"Nc1nccc(Sc2cnc(N3CCC4(CC3)Cc3ccccc3C4N)cn2)c1Cl (centres unmarked) [Example 125, 1′-(5-((2-amino-3-chloropyridin-4-yl)thio)pyrazin-2-yl)-1,3-dihydrospiro [indene-2,4′-piperidin]-1-amine]",86%
25,"Nc1cccc(Sc2ncc(N3CCC4(CC3)Cc3ncccc3C4N)nc2N)c1Cl (centres unmarked) [Example 126, 1′-(6-amino-5-((3-amino-2-chlorophenyl)thio)pyrazin-2-yl)-5,7-dihydrospiro[cyclo-penta[b]pyridine-6,4′-piperidin]-5-amine]",81%
26,"Nc1nc(N2CCC3(CC2)Cc2cnccc2C3N)cnc1Sc1ccnc(N)c1Cl (centres unmarked) [Example 127, 1′-(6-amino-5-((2-amino-3-chloropyridin-4-yl)thio)pyrazin-2-yl)-5,7-dihydrospiro [cyclopenta[c]pyridine-6,4′-piperidin]-5-amine]",83%
27,"Nc1cccc(Sc2cnc(N3CCC4(CC3)Cc3ncccc3C4N)cn2)c1Cl (centres unmarked) [Example 128, 1′-(5-((3-amino-2-chlorophenyl)thio)pyrazin-2-yl)-5,7-dihydrospiro [cyclopenta[b]pyridine-6,4′-piperidin]-5-amine]",84%
28,"Nc1nc(N2CCC3(CC2)Cc2cc(Br)ccc2C3N)cnc1Sc1ccnc(N)c1Cl (centres unmarked) [Example 129, 1′-(6-amino-5-((2-amino-3-chloropyridin-4-yl)thio)pyrazin-2-yl)-5-bromo-1,3-dihydro-spiro[indene-2,4′-piperidin]-1-amine]",74%
29,"Nc1nc(N2CCC3(CC2)Cc2sc(Cl)nc2C3N)cnc1Sc1ccnc(N)c1Cl (centres unmarked) [Example 130, 1′-(6-amino-5-((2-amino-3-chloropyridin-4-yl)thio)pyrazin-2-yl)-2-chloro-4,6-dihydro-spiro[cyclopenta [d]thiazole-5,4′-piperidin]-4-amine]",94%
